Test results from PubChem BioAssay (NCI).
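96-well plates; 48 h exposure; 5 concentrations. Endpoints by linear interpolation between flanking doses. Not reached: highest tested concentration assigned. The concentration for full growth arrest is given as TGI.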

Experiments:
Assay in all cases: DTP human tumour cell line panel, 48 h
NCI-H522 lung = test system: NCI-H522 lung
HS 578T breast = test system: HS 578T breast
SN12C renal = test system: SN12C renal
NCI-H226 lung = test system: NCI-H226 lung
A498 renal = test system: A498 renal
HL-60(TB) leukemia = test system: HL-60(TB) leukemia
COLO 205 colon = test system: COLO 205 colon
SK-OV-3 ovarian = test system: SK-OV-3 ovarian
OVCAR-8 ovarian = test system: OVCAR-8 ovarian
UACC-62 melanoma = test system: UACC-62 melanoma
SF-539 CNS = test system: SF-539 CNS
ACHN renal = test system: ACHN renal
HCT-15 colon = test system: HCT-15 colon
UACC-257 melanoma = test system: UACC-257 melanoma
HOP-92 NSCLC = test system: HOP-92 NSCLC
OVCAR-3 ovarian = test system: OVCAR-3 ovarian
DU-145 prostate = test system: DU-145 prostate
HT29 colon = test system: HT29 colon
HCT-116 colon = test system: HCT-116 colon
SW-620 colon = test system: SW-620 colon
PC-3 prostate = test system: PC-3 prostate
CAKI-1 renal = test system: CAKI-1 renal
NCI/ADR-RES ovarian = test system: NCI/ADR-RES ovarian
EKVX NSCLC = test system: EKVX NSCLC
OVCAR-4 ovarian = test system: OVCAR-4 ovarian
MDA-MB-435 = test system: MDA-MB-435
HCC-2998 colon = test system: HCC-2998 colon
MALME-3M melanoma = test system: MALME-3M melanoma
HOP-62 NSCLC = test system: HOP-62 NSCLC
LOX IMVI melanoma = test system: LOX IMVI melanoma
TK-10 renal = test system: TK-10 renal
MCF7 breast = test system: MCF7 breast
IGROV1 ovarian = test system: IGROV1 ovarian
NCI-H460 lung = test system: NCI-H460 lung
SK-MEL-28 melanoma = test system: SK-MEL-28 melanoma
SNB-75 CNS = test system: SNB-75 CNS
SF-295 CNS = test system: SF-295 CNS
U251 CNS = test system: U251 CNS
SK-MEL-5 melanoma = test system: SK-MEL-5 melanoma
UO-31 renal = test system: UO-31 renal
A549 NSCLC = test system: A549 NSCLC
NCI-H23 lung = test system: NCI-H23 lung
BT-549 breast = test system: BT-549 breast
786-0 renal = test system: 786-0 renal
MDA-N = test system: MDA-N
RXF 393 renal = test system: RXF 393 renal
RPMI-8226 leukemia = test system: RPMI-8226 leukemia
CCRF-CEM leukemia = test system: CCRF-CEM leukemia
K-562 leukemia = test system: K-562 leukemia
SR leukemia = test system: SR leukemia
KM12 colon = test system: KM12 colon
SF-268 CNS = test system: SF-268 CNS
M14 melanoma = test system: M14 melanoma
SNB-19 CNS = test system: SNB-19 CNS
T-47D breast = test system: T-47D breast
MOLT-4 leukemia = test system: MOLT-4 leukemia
MDA-MB-231 breast = test system: MDA-MB-231 breast
KM20L2 colon = test system: KM20L2 colon
DMS 114 small cell lung = test system: DMS 114 small cell lung
SNB-78 CNS = test system: SNB-78 CNS
DMS 273 small cell lung = test system: DMS 273 small cell lung
LXFL 529 NSCLC = test system: LXFL 529 NSCLC
OVCAR-5 ovarian = test system: OVCAR-5 ovarian
DLD-1 colon = test system: DLD-1 colon
SK-MEL-2 melanoma = test system: SK-MEL-2 melanoma

Measured: TGI

Cc1nc(C)c(N2CCNCC2)c(=O)[nH]1
not listed: KM20L2 colon | DMS 114 small cell lung | SNB-78 CNS | DMS 273 small cell lung | LXFL 529 NSCLC | OVCAR-5 ovarian | DLD-1 colon | SK-MEL-2 melanoma
> 100 µM: all other assays above

COc1ccc2c3c([nH]c2c1[N+](=O)[O-])C(C)N(Cc1ccccc1)CC3 (stereo not given)
30.9 µM: IGROV1 ovarian
24 µM: HCT-116 colon
6.1 µM: HL-60(TB) leukemia
49 µM: OVCAR-3 ovarian
8.73 µM: U251 CNS
7.71 µM: A498 renal
28.1 µM: M14 melanoma
23.4 µM: MOLT-4 leukemia
11.6 µM: DMS 273 small cell lung
14.1 µM: NCI-H460 lung
45.2 µM: SR leukemia
17.9 µM: RXF 393 renal
5.83 µM: SF-268 CNS
14.5 µM: UACC-257 melanoma
7.56 µM: RPMI-8226 leukemia
13.7 µM: HT29 colon
5.24 µM: SF-539 CNS
7.12 µM: HOP-62 NSCLC
59.5 µM: SK-MEL-28 melanoma
not listed: NCI-H522 lung | HS 578T breast | SK-OV-3 ovarian | HOP-92 NSCLC | DU-145 prostate | PC-3 prostate | NCI/ADR-RES ovarian | MDA-MB-435 | MALME-3M melanoma | MCF7 breast | SNB-75 CNS | SF-295 CNS | SK-MEL-5 melanoma | BT-549 breast | MDA-N | T-47D breast | MDA-MB-231 breast
> 100 µM: all other assays above
